PMC5610941 (Journal of molecular biology, 2017)

Molecular target: HtpG (Escherichia coli, UniProt P0A6Z3)
Test: SAXS radius of gyration titration, closed-state accumulation
Format: binding

Chain of HtpG (P0A6Z3 whole entry): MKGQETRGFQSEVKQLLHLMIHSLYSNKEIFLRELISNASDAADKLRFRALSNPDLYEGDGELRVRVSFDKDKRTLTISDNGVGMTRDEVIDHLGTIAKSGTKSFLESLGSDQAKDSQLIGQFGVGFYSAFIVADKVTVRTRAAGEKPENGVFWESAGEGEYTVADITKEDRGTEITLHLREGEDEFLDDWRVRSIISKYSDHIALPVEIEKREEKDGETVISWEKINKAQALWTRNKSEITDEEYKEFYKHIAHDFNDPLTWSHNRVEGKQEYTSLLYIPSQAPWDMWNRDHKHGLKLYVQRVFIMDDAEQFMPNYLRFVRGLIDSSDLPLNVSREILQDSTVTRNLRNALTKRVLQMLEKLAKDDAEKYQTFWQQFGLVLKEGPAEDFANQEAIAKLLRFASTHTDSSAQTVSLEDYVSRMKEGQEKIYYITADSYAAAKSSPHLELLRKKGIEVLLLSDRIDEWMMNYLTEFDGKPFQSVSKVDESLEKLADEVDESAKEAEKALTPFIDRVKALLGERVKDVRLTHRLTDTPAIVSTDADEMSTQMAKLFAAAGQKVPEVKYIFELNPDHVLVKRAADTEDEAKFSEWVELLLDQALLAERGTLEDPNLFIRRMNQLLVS

Structure (SMILES): Nc1ncnc2c1ncn2[C@@H]1O[C@H](COP(=O)(O)OP(=O)(O)NP(=O)(O)O)[C@@H](O)[C@H]1O [AMPPNP]
- Kd: 12 to 15 µM
